According to US20050169964A1, “Antibiotic calcium phosphate coating” (Howmedica Osteonics Corp., priority 2001, published 2005):

B1: OP-1® Osteogenic graft material: Osteogenic protein-1, a 36 kD homodimer protein in the TGI-β super-family; a bone morphogenic protein (protein, UniProt P18075 293-431, looked up)
Bone morphogenetic protein 7: STGSKQRSQNRSKTPKNQEALRMANVAENSSSDQRQACKKHELYVSFRDLGWQDWIIAPEGYAAYYCEGECAFPLNSYMNATNHAIVQTLVHFINPETVPKPCCAPTQLNAISVLYFDDSSNVILKKYRNMVVRACGCH
modifications: graft material
notes: Osteogenic protein-1, a 36 kD homodimer protein in the TGI-β super-family; a bone morphogenic protein

Assays:
[1] = system: Staphylococcus aureus (ATCC strain #6538); assay: modified Kirby Bauer susceptibility model, zone of inhibition around antibiotic containing HA disk; type: cell-based; conditions: for Zone of Inhibition (mm): antibiotic absorbed into precipitated crystalline HA coating, Mueller-Hinton agar, 24 hr at 37° C.
Description: 1.2 Grams of tobramycin sulfate was dissolved in 12 milliliters of sterile deionized water (100 mg/ml). […] Ten (10) μl of solution was pipetted onto the surface of each of the […] coated disks and allowed to dry. […] The test coupons were then placed into a buffered saline at 37° C. immediately after the absorption process was completed. […] In the well-known Kirby Bauer Susceptibility Model test organisms were propagated and handled in accordance with ATCC recommendations for broth media, agar, and incubation specifications. […] Each seeded plate was challenged with both an antibiotic containing HA disk and a non-antibiotic containing HA disk, which served as a control. Samples were tested in duplicate (i.e., two plates per organism). Following incubation for 24 hr. at 37° C., the plates were examined for zones of inhibition around the disks. The zone of inhibition is defined as the distance between the test disk and the edge of bacterial growth. It is common for a hazy, or “ghost” zone to exist between the areas of complete inhibition and full bacterial growth. This “ghost” zone is the result of partial inhibition and is not included in the measurement of the zone of inhibition.

[2] = system: adductor muscles (intramuscular pouch); type: in vivo, Long-Evans male rats
Text: In-vivo study of OP-1® Osteogenic graft material coated implants: Freshly reconstituted OP-1® Osteogenic graft material in lactose solution was loaded onto each surface of the PA coated disk using sterile pipettes. The solution evenly spaced across the dry surface and was completely absorbed. Sixteen Long-Evans male rats with body weight 300-390 g were used in the study. The animals were anesthetized and an incision was made on the medial thigh to prepare intramuscular pouch within the adductor muscles for placement of the implant articles, on both contra-lateral limbs. A total of 32 implants were divided into 4 groups: (A) titanium disks; (B) titanium disks coated with PA, (C) titanium disks coated with PA plus OP-1® Osteogenic graft material (40 μg), (D) OP-1® Osteogenic graft material solution (40 μg). For Group C, the OP-1® Osteogenic graft material solution was directly pipeted on each Ti disk immediately before implantation. The solution was absorbed within 1 minute. For Group D, OP-1® Osteogenic graft material solution was dropped into the muscular pouch. The same amount of identical carrier solution for OP-1® Osteogenic graft material was loaded on disks of Groups A and B. After implantation, the pouch was closed with 3-0 chromic sutures, and the wound was closed in layers. The rats were housed individually and allowed unrestricted activity immediately after […]. All the animals were sacrificed 4 weeks postoperatively. The complete limb was disarticulated from hip joint and x-rayed. The implants with their surrounding tissues were retrieved. All implants were processed for undecalcified thin section histology using EXAKT technique. The slides were stained with Stevenel's blue/van Gieson's picrofuchsin method for histological analysis. Bone was stained in red color and fibrous tissue in blue. Half of the specimens of Group D were decalcified and embedded in paraffin. Sections were stained with hematoxylin and eosin.

[3] = binding of [125I]OP-1 to PA coated titanium disks (scintillation counting); conditions: FIG. 3 time course
Description: Materials and Methods—Preparation of implant test articles: Titanium alloy (Ti6A14V) disks/coupons 5 mm in diameter and 3 mm thick were coated both sides with PA coating using the method of Example I. The thickness of the coating surface was determined by SEM to be nominally 20 μm to 50 μm.
Determination of the binding capacity of OP-1® Osteogenic graft material: A pre-mixed blend of unlabelled OP-1® Osteogenic graft material with iodine [^125I] for tracking purposes was used. The OP-1® Osteogenic graft material in a lactose solution was pipetted on PA coated disks in triplicate. A range of OP-1® Osteogenic graft material incubation time and concentration treatment was applied to determine the time-course and binding capacity of the graft material on the PA coated disk. Following the incubation, each coupon was washed with lactose solution and the washes were collected in a scintillation vial. 10 ml of the scintillation cocktail was added to each test article and wash sample and the scintillation counts were measured in a liquid scintillation counter (LSC) to calculate the amount of OP-1® Osteogenic graft material bound to the PA coated disk.

[4] = precipitation of OP-1 protein in solution; type: physicochemical

| Molecule | Zone of Inhibition (mm) [1] [mm] | further results |
| --- | --- | --- |
| N[C@@H](C(=O)N[C@@H]1C(=O)N2C(C(=O)O)=C(Cl)CS[C@H]12)c1ccccc1 [Cefaclor] | 20.5 | – |
| CC(=O)OCC1=C(C(=O)O)N2C(=O)[C@@H](NC(=O)CCC[C@@H](N)C(=O)O)[C@H]2SC1 [Cephalosporin C] | 11.5 | – |
| CN[C@H](CC(C)C)C(=O)N[C@H]1C(=O)N[C@@H](CC(N)=O)C(=O)N[C@H]2C(=O)N[C@H]3C(=O)N[C@H](C(=O)N[C@H](C(=O)O)c4cc(O)cc(O)c4-c4cc3ccc4O)[C@H](O)c3ccc(c(Cl)c3)Oc3cc2cc(c3O[C@@H]2O[C@H](CO)[C@@H](O)[C@H](O)[C@H]2O[C@H]2C[C@](C)(N)[C@H](O)[C@H](C)O2)Oc2ccc(cc2Cl)[C@H]1O [Vancomycin] | 10.5 | – |
| NC[C@H]1O[C@H](O[C@H]2[C@H](O)[C@@H](O[C@H]3O[C@H](CO)[C@@H](O)[C@H](N)[C@H]3O)[C@H](N)C[C@@H]2N)[C@H](N)C[C@@H]1O [Tobramycin] | 10 | biological activity of released antibiotic ([1]; after absorption into the hydroxyapatite structure): remained biologically active |
| CC1=C(C(=O)O)N2C(=O)[C@@H](NC(=O)[C@H](N)c3ccccc3)[C@H]2SC1 [Cephalexin] | 19 | – |
| Penicillin [Penicillin Potassium Salt] | 29 | – |
| Penicillin [Penicillin Benzathine] | 22.5 | – |
| O=C(O)c1cn(C2CC2)c2cc(N3CCNCC3)c(F)cc2c1=O [Ciprofloxacin] | 15.5 | – |
| Cn1nnnc1SCC1=C(C(=O)O)N2C(=O)[C@@H](NC(=O)[C@H](O)c3ccccc3)[C@H]2SC1 [Cefamandole] | 25 | – |
| Penicillin [Penicillin Procaine] | 26.5 | – |
| Penicillin [Penicillin Sodium Salt] | 28 | – |
| B1 | – | extension of new bone surrounding the disks ([2]; Group C: titanium disks coated with PA plus OP-1 (40 μg), radiographic, 4 weeks): ≤ 10 mm; inflammation in the specimens ([2]; rat, in vivo): no inflammation; incidence of bone formation ([2]; the two groups treated with OP-1 (40 μg; Groups C and D), 4 weeks): 100%; time after loading at which maximal binding to PA is achieved [3]: 5 h; concentration over which protein spontaneously precipitates [4]: over 5 mg/mL |
